# Biological target: T1, human NaV1.8 (Homo sapiens, UniProt Q9Y5Y9)
# T1 construct: expressed in transfected cells
# Assay: Nav1.8 Qube® Assay (automated 384-well patch-clamp, inhibition of sodium current)
# Assay type: cell-based
# Settings: human NaV1.8 channels stably expressed in HEK 293 cells, room temperature
# Protocol: Compounds were tested on human NaV1.8 and NaV1.5 channels stably expressed in human embryo kidney (HEK) 293 cells. Sodium current measurements on Qube® were conducted as follows: automated 384-well patch-clamp assays on the Qube® platform (Sophion Biosciences) were used to measure the inhibition of sodium flow through human NaV1.8 and NaV1.5 channels. Whole-cell voltage-clamp recordings were performed in QChips® (Sophion Biosciences) at room temperature. NaV1.8 current measurements on Qube® were obtained as follows: NaV1.8 currents were elicited with a 10 second 1 Hertz (Hz) pulse train from a holding potential of −90 millivolts (mV), delivered to the cells once per minute in the control condition (DMSO only) and after compound addition. The 1 hertz pulse train stimulation consisted of ten test pulses to 10 millivolt (mV) for 20 milliseconds (ms), each of which was followed by a 980 millisecond repolarization to −67 millivolts. At the end of the 10 second pulse train stimulation, a 5 second hyperpolarization step to −100 millivolt (mV) was used to recover NaV1.8 from fast inactivation. The peak currents elicited by the 1st and 10th test pulses were used to determine IC50 values for resting inhibition and inactivated state inhibition. NaV1.5 current measurements on Qube® were obtained as follows: NaV1.5 currents were elicited with a 20 second 3 Hertz pulse train in the control condition (DMSO only) and after compound addition. The pulse train consisted of sixty 20 millisecond test pulses to 0 millivolt from a holding potential of −80 millivolt (mV). The average peak currents elicited by the last 3 test pulses were used to determine IC50 values for NaV1.5 inhibition.
# The following buffers were used for the Qube® recordings: External buffer for NaV1.8 Qube® recording: 150 NaCl, 2 CaCl2, 5 KCl, 1 Mg Cl2, 10 HEPES, 12 Dextrose; External buffer for Qube® NaV1.5 recording: 120 N-Methyl-D-Glucamine, 40 NaCl, 1 KCl, 2.7 CaCl2, 5 HEPES, 0.5 MgCl2; and Internal buffer for Qube® recording: 120 CsF, 30 CsCl, 10 EGTA, 5 HEPES, 5 NaF, 2 MgCl2.
# For all Qube® experiments offline analysis was used to determine percent inhibition as a function of drug concentration. IC50 values were determined by fitting to the Hill equation.
# T1 sequence (Q9Y5Y9 whole entry): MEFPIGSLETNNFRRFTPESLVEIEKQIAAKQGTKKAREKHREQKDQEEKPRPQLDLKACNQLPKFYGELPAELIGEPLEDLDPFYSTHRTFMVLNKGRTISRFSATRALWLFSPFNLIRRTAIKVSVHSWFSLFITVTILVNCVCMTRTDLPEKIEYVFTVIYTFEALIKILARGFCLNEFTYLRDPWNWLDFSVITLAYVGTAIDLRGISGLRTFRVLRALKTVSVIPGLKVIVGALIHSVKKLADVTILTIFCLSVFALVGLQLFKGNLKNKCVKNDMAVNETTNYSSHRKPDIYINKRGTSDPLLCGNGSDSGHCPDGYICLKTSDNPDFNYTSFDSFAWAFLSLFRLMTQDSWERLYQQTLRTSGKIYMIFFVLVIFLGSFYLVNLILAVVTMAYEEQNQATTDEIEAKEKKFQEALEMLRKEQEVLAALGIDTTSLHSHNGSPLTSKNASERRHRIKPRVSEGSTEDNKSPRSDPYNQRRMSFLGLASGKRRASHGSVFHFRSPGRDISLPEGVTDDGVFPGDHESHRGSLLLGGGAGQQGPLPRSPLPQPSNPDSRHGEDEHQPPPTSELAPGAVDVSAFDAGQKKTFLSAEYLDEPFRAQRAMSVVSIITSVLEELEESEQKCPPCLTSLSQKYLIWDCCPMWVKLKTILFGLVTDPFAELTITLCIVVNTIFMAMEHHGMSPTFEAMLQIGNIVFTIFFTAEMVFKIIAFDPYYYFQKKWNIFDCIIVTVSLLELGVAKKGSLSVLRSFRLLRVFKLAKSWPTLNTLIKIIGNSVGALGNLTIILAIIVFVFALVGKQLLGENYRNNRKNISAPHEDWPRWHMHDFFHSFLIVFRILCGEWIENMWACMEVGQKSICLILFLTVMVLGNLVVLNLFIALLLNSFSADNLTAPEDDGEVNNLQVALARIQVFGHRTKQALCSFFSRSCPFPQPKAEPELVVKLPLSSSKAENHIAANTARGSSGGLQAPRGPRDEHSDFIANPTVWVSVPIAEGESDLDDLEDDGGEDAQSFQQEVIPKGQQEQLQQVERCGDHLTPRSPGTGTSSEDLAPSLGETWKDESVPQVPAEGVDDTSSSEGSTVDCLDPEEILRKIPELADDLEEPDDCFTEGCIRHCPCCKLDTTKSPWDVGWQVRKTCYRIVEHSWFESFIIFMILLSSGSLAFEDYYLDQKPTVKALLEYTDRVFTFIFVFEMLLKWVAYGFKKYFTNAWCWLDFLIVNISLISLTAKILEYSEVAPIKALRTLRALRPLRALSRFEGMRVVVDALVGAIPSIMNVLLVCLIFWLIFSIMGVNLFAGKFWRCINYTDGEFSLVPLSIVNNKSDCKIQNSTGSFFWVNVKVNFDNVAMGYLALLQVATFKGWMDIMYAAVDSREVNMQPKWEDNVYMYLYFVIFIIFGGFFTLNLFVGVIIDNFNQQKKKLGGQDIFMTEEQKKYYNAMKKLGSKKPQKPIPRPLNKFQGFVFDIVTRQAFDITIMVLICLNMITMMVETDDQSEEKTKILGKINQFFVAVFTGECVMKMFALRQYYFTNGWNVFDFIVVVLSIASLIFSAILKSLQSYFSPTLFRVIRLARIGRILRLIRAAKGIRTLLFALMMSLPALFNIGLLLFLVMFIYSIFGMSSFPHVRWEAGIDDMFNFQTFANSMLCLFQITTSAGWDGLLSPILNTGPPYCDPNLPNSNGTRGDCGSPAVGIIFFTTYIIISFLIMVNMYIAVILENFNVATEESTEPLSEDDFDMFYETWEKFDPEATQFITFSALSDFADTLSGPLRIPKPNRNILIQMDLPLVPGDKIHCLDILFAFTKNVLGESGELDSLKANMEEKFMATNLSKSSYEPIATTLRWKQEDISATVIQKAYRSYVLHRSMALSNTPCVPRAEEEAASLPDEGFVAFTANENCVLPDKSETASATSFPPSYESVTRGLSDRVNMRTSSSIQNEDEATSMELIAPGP
row,IC50 [nM],Compound
1,3.23,"C[C@@H]1C(=O)NCCN1C(=O)NC(c1ccc(F)c(Cl)c1)C1CCC2(CC1)CC2(F)F (single isomer, unassigned) [Example 19B]"
2,15.7,"C[C@@H]1C(=O)NCCN1C(=O)NC(c1ccc(F)c(Cl)c1)C1CCC2(CC1)CC2(F)F (single isomer, unassigned) [Example 19C]"
3,10,"C[C@@H]1C(=O)NCCN1C(=O)NC(c1ccc(F)c(Cl)c1)C1CCC2(CC1)CC2(F)F (single isomer, unassigned) [Example 19D]"
4,1.37,"C[C@@H]1C(=O)NCCN1C(=O)NC(c1ccc(F)c(Cl)c1F)C1CC(C(F)(F)F)C1 (single isomer, unassigned) [Example 20A]"
5,9.02,"C[C@@H]1C(=O)NCCN1C(=O)NC(c1ccc(F)c(Cl)c1F)C1CC(C(F)(F)F)C1 (single isomer, unassigned) [Example 20C]"
6,116,"C[C@@H]1C(=O)NCCN1C(=O)NC(c1ccc(F)c(Cl)c1F)C1CC(C(F)(F)F)C1 (single isomer, unassigned) [Example 20D]"
7,1.08,"C[C@@H]1C(=O)NCCN1C(=O)NC(c1ccc(F)c(Cl)c1F)C1CC(C2CC2)C1 (single isomer, unassigned) [Example 21A, (2R)-N-((R or S)-(3-chloro-2,4-difluoro-phenyl)(trans or cis-3-cyclopropylcyclobutyl)methyl)-2-methyl-3-oxopiperazine-1-carboxamide]"
8,2.87,"C[C@@H]1C(=O)NCCN1C(=O)NC(c1ccc(F)c(Cl)c1F)C1CC(C2CC2)C1 (single isomer, unassigned) [Example 21B, (2R)-N-((R or S)-(3-chloro-2,4-difluoro-phenyl)(cis or trans-3-cyclopropylcyclobutyl)methyl)-2-methyl-3-oxopiperazine-1-carboxamide]"
9,59.7,"C[C@@H]1C(=O)NCCN1C(=O)NC(c1ccc(F)c(Cl)c1F)C1CC(C2CC2)C1 (single isomer, unassigned) [Example 21C, (2R)-N-((S or R)-(3-chloro-2,4-difluoro-phenyl)(trans or cis-3-cyclopropyl-cyclobutyl)-methyl)-2-methyl-3-oxopiperazine-1-carboxamide]"
10,128,"C[C@@H]1C(=O)NCCN1C(=O)NC(c1ccc(F)c(Cl)c1F)C1CC(C2CC2)C1 (single isomer, unassigned) [Example 21D, (2R)-N-((S or R)-(3-chloro-2,4-difluoro-phenyl)(cis or trans-3-cyclopropyl-cyclobutyl)-methyl)-2-methyl-3-oxopiperazine-1-carboxamide]"
11,2.9,"C[C@@H]1C(=O)NCCN1C(=O)NC(c1ccc(F)c(Cl)c1F)C1CC2(C1)CC2(F)F (single isomer, unassigned) [Example 22A, (2R)-N-((R or S)-(3-chloro-2,4-difluoro-phenyl)(trans or cis-1,1-difluoro-spiro[2,3]-hexan-5-yl)methyl)-2-methyl-3-oxopiperazine-1-carboxamide]"
12,5.89,"C[C@@H]1C(=O)NCCN1C(=O)NC(c1ccc(F)c(Cl)c1F)C1CC2(C1)CC2(F)F (single isomer, unassigned) [Example 22B, (2R)-N-((R or S)-(3-chloro-2,4-difluoro-phenyl)(cis or trans-1,1-difluoro-spiro[2,3]-hexan-5-yl)methyl)-2-methyl-3-oxopiperazine-1-carboxamide]"
13,84.5,"C[C@@H]1C(=O)NCCN1C(=O)NC(c1ccc(F)c(Cl)c1F)C1CC2(C1)CC2(F)F (single isomer, unassigned) [Example 22C, (2R)-N-((S or R)-(3-chloro-2,4-difluoro-phenyl)(trans or cis-1,1-difluoro-spiro[2.3]-hexan-5-yl)methyl)-2-methyl-3-oxopiperazine-1-carboxamide]"
14,85.2,"C[C@@H]1C(=O)NCCN1C(=O)NC(c1ccc(F)c(Cl)c1F)C1CC2(C1)CC2(F)F (single isomer, unassigned) [Example 22D, (2R)-N-((So or R)-(3-chloro-2,4-difluoro-phenyl)(cis or trans-1,1-difluoro-spiro[2.3]-hexan-5-yl)methyl)-2-methyl-3-oxopiperazine-1-carboxamide]"
15,1.16,"C[C@@H]1C(=O)NCCN1C(=O)NC(c1ccc(F)c(Cl)c1F)C1CC2(C1)CC(F)(F)C2 (single isomer, unassigned) [Example 23, (2R)-N-((R or S)-(3-chloro-2,4-difluoro-phenyl)(6,6-difluoro-spiro[3.3]heptan-2-yl)methyl)-2-methyl-3-oxopiperazine-1-carboxamide]"
16,2630,"C[C@@H]1C(=O)NCCN1C(=O)NC(c1ccc(F)c(Cl)c1F)C1CC(F)(F)C1 (single isomer, unassigned) [Example 24A, (2R)-N-((R or S)-(3-chloro-2,4-difluoro-phenyl)(3,3-difluoro-cyclobutyl)methyl)-2-methyl-3-oxopiperazine-1-carboxamide]"
17,29.1,"C[C@@H]1C(=O)NCCN1C(=O)NC(c1ccc(F)c(Cl)c1F)C1CC(F)(F)C1 (single isomer, unassigned) [Example 24B, (2R)-N-((S or R)-(3-chloro-2,4-difluoro-phenyl)(3,3-difluoro-cyclobutyl)methyl)-2-methyl-3-oxopiperazine-1-carboxamide]"
18,10.4,"C=C1CC(C(NC(=O)N2CCNC(=O)[C@H]2C)c2ccc(F)c(Cl)c2F)C1 (single isomer, unassigned) [Example 25A, (2R)-N-((R or S)-(3-chloro-2,4-difluoro-phenyl)(3-methylene-cyclobutyl)methyl)-2-methyl-3-oxopiperazine-1-carboxamide]"
19,652,"C=C1CC(C(NC(=O)N2CCNC(=O)[C@H]2C)c2ccc(F)c(Cl)c2F)C1 (single isomer, unassigned) [Example 25B, (2R)-N-((S or R)-(3-chloro-2,4-difluoro-phenyl)(3-methylene-scyclobutyl)methyl)-2-methyl-3-oxopiperazine-1-carboxamide]"
20,0.8,"O=C1NCCN(C(=O)N[C@H](c2ccc(F)c(Cl)c2F)[C@H]2C[C@H](C(F)(F)F)C2)C1C1CC1 (single isomer, unassigned) [Example 27A, (R or S)—N—((S)-(3-chloro-2,4-difluorophenyl)(trans-3-(trifluoromethyl)cyclobutyl)methyl)-2-cyclopropyl-3-oxopiperazine-1-carboxamide]"
21,107,"O=C1NCCN(C(=O)N[C@H](c2ccc(F)c(Cl)c2F)[C@H]2C[C@H](C(F)(F)F)C2)C1C1CC1 (single isomer, unassigned) [Example 27B, (S or R)—N—((S)-(3-chloro-2,4-difluorophenyl)(trans-3-(trifluoromethyl)cyclobutyl)methyl)-2-cyclopropyl-3-oxopiperazine-1-carboxamide]"
22,2.65,"C[C@@H]1C(=O)NCCN1C(=O)NC(c1ccc(F)c(Cl)c1F)C1CC2(CC2)C1 (single isomer, unassigned) [Example 28A, (2R)—N—((R or S)-(3-chloro-2,4-difluorophenyl)(spiro[2.3]hexan-5-yl)methyl)-2-methyl-3-oxopiperazine-1-carboxamide]"
23,191,"C[C@@H]1C(=O)NCCN1C(=O)NC(c1ccc(F)c(Cl)c1F)C1CC2(CC2)C1 (single isomer, unassigned) [Example 28B, (2R)—N—((S or R)-(3-chloro-2,4-difluorophenyl)(spiro[2.3]hexan-5-yl)methyl)-2-methyl-3-oxopiperazine-1-carboxamide]"
24,8.91,"C[C@@H]1C(=O)NCCN1C(=O)NC(c1ccc(F)c(Cl)c1F)[C@H]1C[C@H](C(F)F)C1 (single isomer, unassigned) [Example 29A]"
25,66.5,"C[C@@H]1C(=O)NCCN1C(=O)NC(c1ccc(F)c(Cl)c1F)[C@H]1C[C@H](C(F)F)C1 (single isomer, unassigned) [Example 29B]"
26,281,"C[C@@H]1C(=O)NCCN1C(=O)NC(c1ccc(F)c(Cl)c1F)C12CC(C(F)(F)F)(C1)C2 (single isomer, unassigned) [Example 30A]"
27,3.12,"C[C@@H]1C(=O)NCCN1C(=O)NC(c1ccc(F)c(Cl)c1F)C12CC(C(F)(F)F)(C1)C2 (single isomer, unassigned) [Example 30B]"
28,0.74,"C[C@@H]1C(=O)NCCN1C(=O)NC(c1ccc(F)c(Cl)c1F)C1CC(C)(C)C1 (single isomer, unassigned) [Example 31A, (2R)-N-((R or S)-(3-chloro-2,4-difluoro-phenyl)(3,3-dimethyl-cyclobutyl)methyl)-2-methyl-3-oxopiperazine-1-carboxamide]"

# Reference: patent US20220380338A1, “CYCLOALKYL 3-OXOPIPERAZINE CARBOXAMIDES AND CYCLOHETEROALKYL 3-OXOPIPERAZINE CARBOXAMIDES AS NAV1.8 INHIBITORS” (Merck Sharp & Dohme LLC, priority 2021, published 2022)
